{
  "source": "patent US20090253650A1",
  "about": "“Teat antiseptic prepared from polysaccharide gel with bactericidal and immuno-stimulating activity isolated from durian fruit-rind” (priority 2008, published 2009)",
  "system": "peritoneal leukocyte",
  "experiment": "Peritoneal leukocyte count in mice after intraperitoneal injection",
  "assay_type": "in vivo",
  "settings": "3% thioglycollate (positive control)",
  "data": [
    {"substance": "thioglycollate", "values": [
      {"measurement": "Number of Lymphocyte (mean ± S.E.)", "value": "0.86 ± 0.14 ×10^6 cell/ml"}
    ]}
  ]
}
